This is an account of results in patent US20250188092A1, “RIFAMYCIN ANALOGS” (THE REGENTS OF THE UNIVERSITY OF MICHIGAN, priority 2021, published 2025).

For one data set, the system named is VERO cells (ATCC CRL-81). Put plainly: Vero cell toxicity. In kind it is cell-based. As to conditions: Chlorocebus sabaeus, Vero; 72 hours exposure. On the procedure:
Cytotoxicity for a mammalian cell line was determined by exposing VERO cells (ATCC CRL-81) to serial dilutions of test compounds for 72 hours, followed by addition of resazurin and measurement of fluorescence after 4 hours incubation (Choules, et al., Antimnicrob. Agents Chemother. 2019, 63, e02204-02218).

The target in data set [1] is T1, E. coli D516V (RIF^R) RNAP (Escherichia coli, UniProt P0A8V2, D516V).
T1 construct: made in house
Put plainly: biochemical.

Data set [2] addresses T2, E. coli S531L (RIF^R) RNAP (Escherichia coli, UniProt P0A8V2, S531L).
T2 construct: made in house
The experiment in a line: biochemical.

The target of the next data set is T3, E. coli WT RNAP (Escherichia coli, UniProt P0A8V2).
T3 construct: made in house
The experiment in a line: biochemical.

The test system of the next data set is DPX2 cells. The note with it: for DPX2 Viability @ 6.25 μM: 24 h; for DPX2 Viability @ 25 μM: human.
In the next data set the test system is MTB H37Rv ATCC 27294. The experiment in a line: MIC, microplate Alamar Blue assay (MABA). The note with it: for MIC: Mycobacterium tuberculosis, MTB H37Rv ATCC 27294, microplate Alamar Blue assay, lowest concentration giving ≥90% reduction in fluorescence, read-out: MIC90 MABA. The data set is classed as cell-based, Mycobacterium tuberculosis. On the technique in general: The colour change of resazurin is a common sign of viable cells or microbes.

In a further data set the test system is M. tuberculosis H37Rv. The experiment in a line: Minimum bactericidal concentration (MBC, CFU Assay). The data set is classed as cell-based, Mycobacterium tuberculosis. The note with it: for MBC: Mycobacterium tuberculosis, 168 h, Day 7, M. tuberculosis H37Rv, ≥99% reduction in colony forming units, read-out: MBC99 Day 7 (CFU Assay) MBC99.
[3] abbreviates: CFU Assay MBC99 relative to rifampin (RMP = 1).

Like-named read-outs stand apart in the source and are kept apart here.

The compound `CO[C@H]1/C=C/O[C@@]2(C)Oc3c(C)c(O)c4c(=O)c(c5oc6cc(N7CCN(CC(C)C)CC7)cc(OCCCCN7CCOCC7)c6nc-5c4c3C2=O)NC(=O)/C(C)=C\C=C\[C@H](C)[C@H](O)[C@@H](C)[C@@H](O)[C@@H](C)[C@H](OC(C)=O)[C@@H]1C` [Compound 6a, (7S,9E,11S,12R,13S,14R,15R,16R,17S,18S,19E,21Z)-2,15,17-Trihydroxy-11-methoxy-3,7,12,14,16,18,22-heptamethyl-30-[4-(2-methylpropyl)piperazin-1-yl]-32-[4-(morpholin-4-yl)butoxy]-6,23,37-trioxo-8,27,38-trioxa-24,34-diazahexacyclo[23.11.1.1^4,7.0^5,36.0^26,35.0^28,33]octatriaconta-1(36)2,4,9,19,21,25,28(33)29,31,34-undecaen-13-yl acetate] registered a half-maximal inhibitory concentration (IC50) with VERO cells (ATCC CRL-81) greater than 8 µM. This compound also gave an IC50 in data set [1] of 39 µM. In data set [2], this compound came in with a concentration for half-maximal inhibition (IC50) of 80 µM. Moreover, at E. coli WT RNAP, the half-inhibitory concentration (IC50) was determined as 0.006 µM. Further, in the data set on DPX2 cells, the “DPX2 Viability @ 6.25 μM” value amounted to 102% and the “DPX2 Viability @ 25 μM” value was determined as 86%. Also, in the data set with MTB H37Rv ATCC 27294, the “MIC90 MABA Rel to RMP” value is 0.80 and the MIC turned out to be 0.092 µM. Also, in the data set on M. tuberculosis H37Rv, the “MBC99 Day 7 (CFU Assay) MBC99 Rel to RMP” value came to 0.08 and the MBC was determined as 0.01 µM.

For the compound `CO[C@H]1/C=C/O[C@@]2(C)Oc3c(C)c(O)c4c(=O)c(c5oc6cc(N7CCN(CC(C)C)CC7)cc(OCc7cccc(CN8CCN(C(=O)Cn9ccnc9)CC8)c7)c6nc-5c4c3C2=O)NC(=O)/C(C)=C\C=C\[C@H](C)[C@H](O)[C@@H](C)[C@@H](O)[C@@H](C)[C@H](OC(C)=O)[C@@H]1C` [Compound 12c, (7S,9E,11S,12R,13S,14R,15R,16R,17S,18S,19E,21Z)-2,15,17-Trihydroxy-32-{[3-({4-[2-(1H-imidazol-1-yl)acetyl]piperazin-1-yl}methyl)phenyl]methoxy}-11-methoxy-3,7,12,14,16,18,22-heptamethyl-30-[4-(2-methylpropyl)piperazin-1-yl]-6,23,37-trioxo-8,27,38-trioxa-24,34-diazahexacyclo[23.11.1.1^4,7.0^5,36.0^26,35.0^28,33]octatriaconta-1(36)2,4,9,19,21,25,28,30,32,34-undecaen-13-yl acetate], the IC50 was greater than 8 µM in the data set on VERO cells (ATCC CRL-81), 17 µM in data set [1], 66 µM in data set [2] and 0.014 µM against E. coli WT RNAP. For the same compound, the “DPX2 Viability @ 6.25 μM” value in the data set with DPX2 cells amounted to 107%. For the same compound, the “DPX2 Viability @ 25 μM” value with DPX2 cells was 95%. The “MIC90 MABA Rel to RMP” value with MTB H37Rv ATCC 27294 is given as 0.12. In addition, the MIC in the data set on MTB H37Rv ATCC 27294 came out at 0.0048 µM. Also, the “MBC99 Day 7 (CFU Assay) MBC99 Rel to RMP” value in the data set on M. tuberculosis H37Rv (setting [3]) is given as less than 0.08. For the same compound, the MBC in the data set with M. tuberculosis H37Rv is less than 0.02 µM.

On to `CO[C@H]1/C=C/O[C@@]2(C)Oc3c(C)c(O)c4c(=O)c(c5oc6cc(N7CCN(CC(C)C)CC7)cc(OCCCCN7CCN(CCn8ccnc8)CC7)c6nc-5c4c3C2=O)NC(=O)/C(C)=C\C=C\[C@H](C)[C@H](O)[C@@H](C)[C@@H](O)[C@@H](C)[C@H](OC(C)=O)[C@@H]1C` [Compound 6b, (7S,9E,11S,12R,13S,14R,15R,16R,17S,18S,19E,21Z)-2,15,17-trihydroxy-32-(4-{4-[2-(1H-imidazol-1-yl)ethyl]piperazin-1-yl}butoxy)-11-methoxy-3,7,12,14,16,18,22-heptamethyl-30-[4-(2-methylpropyl)piperazin-1-yl]-6,23,37-trioxo-8,27,38-trioxa-24,34-diazahexacyclo[23.11.1.1^4,7.0^5,36.0^26,35.0^28,33]octatriaconta-1(36)2,4,9,19,21,25,28(33)29,31,34-undecaen-13-yl acetate], for which the 50% inhibitory concentration (IC50) with VERO cells (ATCC CRL-81) was greater than 8 µM; in data set [1] it was 51 µM; in data set [2], 52 µM; on E. coli WT RNAP, 0.006 µM. Moreover, the “DPX2 Viability @ 6.25 μM” value in the data set on DPX2 cells turned out to be 120%. The “DPX2 Viability @ 25 μM” value with DPX2 cells worked out at 57%. In addition, the “MIC90 MABA Rel to RMP” value in the data set on MTB H37Rv ATCC 27294 amounted to 1.6. Further, in the data set on MTB H37Rv ATCC 27294, the MIC came out at 0.021 µM. Moreover, the “MBC99 Day 7 (CFU Assay) MBC99 Rel to RMP” value with M. tuberculosis H37Rv (setting [3]) was determined as 0.23. Moreover, the MBC with M. tuberculosis H37Rv is 0.03 µM.

For orientation: IC50 means the concentration needed to halve the response being measured. A lower IC50 goes with greater potency in that assay.
